Test results from patent US8951527B2, “Radioprotectants targeting thrombospondin-1 and CD47” (The United States of America, as represented by the …, priority 2008, dated 2015).
“Also recorded” adds a separate entry of the source.

System: HUVEC
Assay: HUVEC cell viability after irradiation (MTT / CellTiter 96)
Assay type: cell-based, human
Protocol: FIG. 11. Radioprotective activities of TSP1 and CD47 antibodies, a CD47 binding peptide from TSP1, and a CD47 morpholino. HUVEC were plated on 96-well plates in standard growth medium. Cells were treated with TSP1 (FIG. 11A) or CD47 (FIG. 11B) monoclonal antibodies (clone A6.1 or B6H12, respectively) and received the indicated doses of radiation 24 hours after addition of the antibodies. Cell (mitochondrial) viability was measured 48 hours post irradiation using an MTT assay. Cells were treated using peptide 7N3 (FIG. 11C) and control peptide 604 (FIG. 11D), subjected to the same experimental conditions, and assayed via MTT. […] Experiments were repeated 3 times and results presented as the mean±SD.
(§1) FIG. 12. Peptides 7N3 and C6d are radioprotective to HUVEC in culture. Human umbilical vein endothelial cells (HUVEC) grown in EGM medium in 96-well plates were treated with graded doses of a peptide agent, as indicated. One hour later, cells were exposed to a single dose of gamma radiation (0, 10, 20, 30, and 40 Gray) and allowed to incubate 72 hours at 37° C. Cell viability was determined with the CellTiter 96 AQueous One Solution Cell Proliferation Assay.
Cell Viability Assay. HUVEC were plated at a density of 5000 cells/well in 96 well plates (Nunc), and were treated 24 hours later with either the indicated doses of a CD47 antibody (B6H12), a TSP1 antibody (A6.1), the CD47-binding peptide 7N3, or control peptide 604. One hour later the cells were exposed to a single dose of gamma radiation (0, 10, 20, 30, and 40 Gy) and allowed to incubate another 72 hours at 37° C. Experiments done with B16E10 melanoma cells in Example 4 were done in a similar manner treating either 1 hour prior to a single dose of radiation (10 Gy) with peptide 7N3 or 48 hours prior with CD47 morpholino. Cell viability was determined using the CellTiter 96 Aqueous One Solution cell proliferation assay (Promega, Madison, Wis.) as per the manufacturer's instructions and absorbance at 490 nm was determined using an MR580 Microelisa AutoReader (Dynatech, Alexandria, Va.). The same assay was performed on HUVEC using either the CD47 or CD36 morpholino, but 48 hours were allowed to pass prior to radiation (0 or 40 Gy) to allow for suppression of the target proteins. Similarly, control experiments were performed using the nitric oxide synthase (NOS) inhibitor L-NAME, a membrane permeable cGMP analogue, 8-Bromo cGMP, or the NO donor DETA/NO.
as §1, with “In an additional experiment to test the effect of” for “FIG. 12. Peptides 7N3 and C6d are”, “peptides, human” for “to HUVEC in culture. Human”

## CGTCACAGGCAGGACCCACTGCCCA (all phosphorodiamidate morpholino (PMO)) [CD47 morpholino, CD47 targeting morpholino oligonucleotide]
co-incubation of L-NAME and CD47 morpholino ± radiation (FIG. 22C)
  cell survival of irradiated HUVEC with L-NAME co-incubation: enhancing cell survival
Morpholino 48 hours before radiation (FIG. 11E, F)
  cell viability post radiation after morpholino pretreatment: granted protection against cell death; also recorded: resistant to radiation-driven cell death
